How the values were obtained:
[1] = molecular target: T1, BSA (bovine serum albumin) (Bos taurus, UniProt P02769); experiment: tryptophan fluorescence quenching (excitation […] nm), Scatchard plot; assay type: binding; conditions: read-out: K(BSA) (converted)
T1 construct: gene ALB; commercial native serum albumin (Sigma-Aldrich), mature secreted protein, catalogue number not given

[2] = molecular target: T2, HSA (human serum albumin) (Homo sapiens, UniProt P02768); experiment: as above; assay type: binding; conditions: read-out: K(HSA) (converted)
T2 construct: gene ALB; commercial serum albumin (Sigma-Aldrich), mature secreted protein, catalogue number not given
T2 sequence (P02768 25-609): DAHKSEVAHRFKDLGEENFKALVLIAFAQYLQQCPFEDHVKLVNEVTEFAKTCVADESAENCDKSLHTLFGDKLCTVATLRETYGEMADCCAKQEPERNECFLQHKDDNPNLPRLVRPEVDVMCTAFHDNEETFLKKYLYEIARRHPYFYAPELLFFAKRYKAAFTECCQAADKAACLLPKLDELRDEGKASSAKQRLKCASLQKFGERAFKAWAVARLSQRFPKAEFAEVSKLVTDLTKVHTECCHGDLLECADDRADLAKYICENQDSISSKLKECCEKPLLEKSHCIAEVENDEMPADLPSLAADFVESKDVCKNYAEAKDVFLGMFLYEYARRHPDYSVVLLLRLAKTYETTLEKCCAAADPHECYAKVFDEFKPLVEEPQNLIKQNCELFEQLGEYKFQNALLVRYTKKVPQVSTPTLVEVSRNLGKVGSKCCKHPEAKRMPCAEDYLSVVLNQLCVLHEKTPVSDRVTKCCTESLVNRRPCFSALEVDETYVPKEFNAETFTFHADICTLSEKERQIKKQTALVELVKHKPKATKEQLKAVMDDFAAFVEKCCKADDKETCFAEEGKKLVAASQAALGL

T1 sequence (P02769 25-607): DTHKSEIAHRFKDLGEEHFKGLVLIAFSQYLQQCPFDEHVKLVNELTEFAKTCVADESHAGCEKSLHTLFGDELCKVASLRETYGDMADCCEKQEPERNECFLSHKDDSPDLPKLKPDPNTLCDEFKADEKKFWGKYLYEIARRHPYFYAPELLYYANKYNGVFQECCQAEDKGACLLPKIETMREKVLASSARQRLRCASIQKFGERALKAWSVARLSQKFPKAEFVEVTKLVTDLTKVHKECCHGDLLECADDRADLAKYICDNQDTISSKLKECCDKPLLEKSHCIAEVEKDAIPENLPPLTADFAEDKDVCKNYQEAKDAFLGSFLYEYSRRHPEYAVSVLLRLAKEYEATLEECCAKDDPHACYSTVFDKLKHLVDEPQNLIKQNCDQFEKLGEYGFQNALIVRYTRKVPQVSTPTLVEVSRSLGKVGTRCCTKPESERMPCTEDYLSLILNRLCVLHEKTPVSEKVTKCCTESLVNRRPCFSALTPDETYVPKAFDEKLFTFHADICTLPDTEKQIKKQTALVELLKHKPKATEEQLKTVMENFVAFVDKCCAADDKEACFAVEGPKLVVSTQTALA

Kd [1]: 3.68 µM
Kd [2]: 3.7 µM
SMILES: O=C(O)c1ccccc1Nc1ccc(Br)cc1 [4′-Br-fenH]
